Source: ChEMBL document CHEMBL3885881, “DrugMatrix”

Species on record: Rattus norvegicus
Test: DrugMatrix - Regimen: Daily Repeat
Type: toxicity, organism-based, Sprague-Dawley
Parameters: regimen Daily Repeat, gender Male, age 6-8 weeks
Conditions: in vivo, po, route oral GAVAGE, vehicle .5 % CMC; for ALANINE AMINOTRANSFERASE / ALBUMIN / ALKALINE PHOSPHATASE / ASPARTATE AMINOTRANSFERASE / BLOOD UREA NITROGEN / CHLORIDE / CHOLESTEROL / CREATINE PHOSPHOKINASE / CREATININE / GLUCOSE / LACTATE DEHYDROGENASE / LIPASE / PHOSPHORUS / POTASSIUM / SODIUM / TOTAL BILIRUBIN / TOTAL PROTEIN / URIC ACID: tissue Plasma
[1] = 80 mg/kg, 2184 h, tissue Blood, dose level Low, time 91 day
[2] = 80 mg/kg, 2184 h, dose level Low, time 91 day
[3] = 80 mg/kg, […], tissue Blood, dose level Low, time 28 day
[4] = 80 mg/kg, […], dose level Low, time 28 day
[5] = 150 mg/kg, 72 h, tissue Blood, dose level M1, time 3 day
[6] = 150 mg/kg, 72 h, dose level M1, time 3 day
[7] = 150 mg/kg, 120 h, tissue Blood, dose level M1, time 5 day
[8] = 150 mg/kg, 120 h, dose level M1, time 5 day
[9] = 1500 mg/kg, 72 h, tissue Blood, dose level High, time 3 day
[10] = 1500 mg/kg, 72 h, dose level High, time 3 day
[11] = 1500 mg/kg, 120 h, tissue Blood, dose level High, time 5 day
[12] = 1500 mg/kg, 120 h, dose level High, time 5 day

O=c1cc(-c2ccccc2)oc2ccc3ccccc3c12 [BETA-NAPHTHOFLAVONE]
EOSINOPHIL [1]: 0.76%
ERYTHROCYTE COUNT [1]: 8.94 x10E6/uL
HEMATOCRIT [1]: 47.57%
HEMOGLOBIN [1]: 15.76 G/DL
LEUKOCYTE COUNT [1]: 15.13 x10E3/uL
LYMPHOCYTE [1]: 74.26%
MEAN CORPUSCULAR HEMOGLOBIN [1]: 17.63 pg
MEAN CORPUSCULAR HEMOGLOBIN CONCENTRATION [1]: 33.13 G/DL
MEAN CORPUSCULAR VOLUME [1]: 53.23 fL
MONOCYTE [1]: 1.9%
NEUTROPHIL [1]: 20.01%
PLATELET COUNT [1]: 1247.3 x10E3/uL
ALANINE AMINOTRANSFERASE [2]: 27.5 u/L
ALBUMIN [2]: 3.68 G/DL
ALKALINE PHOSPHATASE [2]: 82.2 u/L
ASPARTATE AMINOTRANSFERASE [2]: 64.9 u/L
BLOOD UREA NITROGEN [2]: 15.3 mg/dL
CHLORIDE [2]: 104 MEQ/L
CHOLESTEROL [2]: 68.4 mg/dL
CREATINE PHOSPHOKINASE [2]: 81.3 u/L
CREATININE [2]: 0.51 mg/dL
GLUCOSE [2]: 148 mg/dL
LACTATE DEHYDROGENASE [2]: 43.4 u/L
LIPASE [2]: 20.6 u/L
PHOSPHORUS [2]: 8.24 mg/dL
POTASSIUM [2]: 6.5 MEQ/L
SODIUM [2]: 150 MEQ/L
TOTAL BILIRUBIN [2]: 0.21 mg/dL
TOTAL PROTEIN [2]: 7.08 G/DL
URIC ACID [2]: 0.93 mg/dL
ABSOLUTE BASOPHIL [3]: 190 cells/µL
ABSOLUTE EOSINOPHIL [3]: 60 cells/µL
ABSOLUTE LYMPHOCYTE [3]: 13200 cells/µL
ABSOLUTE MONOCYTE [3]: 300 cells/µL
ABSOLUTE SEGMENTED NEUTROPHIL [3]: 1910 cells/µL
BASOPHIL [3]: 1.18%
EOSINOPHIL [3]: 0.36%
ERYTHROCYTE COUNT [3]: 8.59 x10E6/uL
HEMATOCRIT [3]: 48.64%
HEMOGLOBIN [3]: 16.08 G/DL
LEUKOCYTE COUNT [3]: 15.78 x10E3/uL
LYMPHOCYTE [3]: 83.98%
MEAN CORPUSCULAR HEMOGLOBIN [3]: 18.78 pg
MEAN CORPUSCULAR HEMOGLOBIN CONCENTRATION [3]: 33.1 G/DL
MEAN CORPUSCULAR VOLUME [3]: 56.7 fL
MONOCYTE [3]: 1.92%
NEUTROPHIL [3]: 12%
PLATELET COUNT [3]: 1252.8 x10E3/uL
ALANINE AMINOTRANSFERASE [4]: 30.4 u/L
ALBUMIN [4]: 3.64 G/DL
ALKALINE PHOSPHATASE [4]: 126 u/L
ASPARTATE AMINOTRANSFERASE [4]: 71.4 u/L
BLOOD UREA NITROGEN [4]: 13.4 mg/dL
CHLORIDE [4]: 103.4 MEQ/L
CHOLESTEROL [4]: 69.8 mg/dL
CREATINE PHOSPHOKINASE [4]: 116.2 u/L
CREATININE [4]: 0.48 mg/dL
GLUCOSE [4]: 156.6 mg/dL
LACTATE DEHYDROGENASE [4]: 80.8 u/L
LIPASE [4]: 13 u/L
PHOSPHORUS [4]: 9.74 mg/dL
POTASSIUM [4]: 6.34 MEQ/L
SODIUM [4]: 149.8 MEQ/L
TOTAL BILIRUBIN [4]: 0.24 mg/dL
TOTAL PROTEIN [4]: 6.58 G/DL
URIC ACID [4]: 0.58 mg/dL
BASOPHIL [5]: 0.43%
EOSINOPHIL [5]: 0.3%
ERYTHROCYTE COUNT [5]: 6.69 x10E6/uL
HEMATOCRIT [5]: 42.2%
HEMOGLOBIN [5]: 13.2 G/DL
LEUKOCYTE COUNT [5]: 11.3 x10E3/uL
LYMPHOCYTE [5]: 85.87%
MEAN CORPUSCULAR HEMOGLOBIN [5]: 19.73 pg
MEAN CORPUSCULAR HEMOGLOBIN CONCENTRATION [5]: 31.23 G/DL
MEAN CORPUSCULAR VOLUME [5]: 63.13 fL
MONOCYTE [5]: 2.17%
NEUTROPHIL [5]: 10.17%
PLATELET COUNT [5]: 1377.33 x10E3/uL
ALANINE AMINOTRANSFERASE [6]: 41.33 u/L
ALBUMIN [6]: 3.57 G/DL
ALKALINE PHOSPHATASE [6]: 337.33 u/L
ASPARTATE AMINOTRANSFERASE [6]: 68.33 u/L
BLOOD UREA NITROGEN [6]: 13 mg/dL
CHLORIDE [6]: 103.33 MEQ/L
CHOLESTEROL [6]: 100 mg/dL
CREATINE PHOSPHOKINASE [6]: 163.67 u/L
CREATININE [6]: 0.4 mg/dL
GLUCOSE [6]: 179 mg/dL
PHOSPHORUS [6]: 12.8 mg/dL
POTASSIUM [6]: 6.93 MEQ/L
SODIUM [6]: 148.33 MEQ/L
TOTAL BILIRUBIN [6]: 0.4 mg/dL
TOTAL PROTEIN [6]: 5.97 G/DL
BASOPHIL [7]: 0.37%
EOSINOPHIL [7]: 0.43%
ERYTHROCYTE COUNT [7]: 7.05 x10E6/uL
HEMATOCRIT [7]: 42.83%
HEMOGLOBIN [7]: 13.57 G/DL
LEUKOCYTE COUNT [7]: 14.17 x10E3/uL
LYMPHOCYTE [7]: 88.67%
MEAN CORPUSCULAR HEMOGLOBIN [7]: 19.27 pg
MEAN CORPUSCULAR HEMOGLOBIN CONCENTRATION [7]: 31.67 G/DL
MEAN CORPUSCULAR VOLUME [7]: 60.87 fL
MONOCYTE [7]: 1.77%
NEUTROPHIL [7]: 7.87%
PLATELET COUNT [7]: 1364.33 x10E3/uL
ALANINE AMINOTRANSFERASE [8]: 42.67 u/L
ALBUMIN [8]: 3.6 G/DL
ALKALINE PHOSPHATASE [8]: 295 u/L
ASPARTATE AMINOTRANSFERASE [8]: 69.33 u/L
BLOOD UREA NITROGEN [8]: 14 mg/dL
CHLORIDE [8]: 104 MEQ/L
CHOLESTEROL [8]: 99 mg/dL
CREATINE PHOSPHOKINASE [8]: 224.33 u/L
CREATININE [8]: 0.47 mg/dL
GLUCOSE [8]: 169 mg/dL
PHOSPHORUS [8]: 12.43 mg/dL
POTASSIUM [8]: 6.6 MEQ/L
SODIUM [8]: 147 MEQ/L
TOTAL BILIRUBIN [8]: 0.57 mg/dL
TOTAL PROTEIN [8]: 6 G/DL
BASOPHIL [9]: 0.4%
EOSINOPHIL [9]: 0.7%
ERYTHROCYTE COUNT [9]: 7.11 x10E6/uL
HEMATOCRIT [9]: 44.17%
HEMOGLOBIN [9]: 13.9 G/DL
LEUKOCYTE COUNT [9]: 12.26 x10E3/uL
LYMPHOCYTE [9]: 82.2%
MEAN CORPUSCULAR HEMOGLOBIN [9]: 19.53 pg
MEAN CORPUSCULAR HEMOGLOBIN CONCENTRATION [9]: 31.47 G/DL
MEAN CORPUSCULAR VOLUME [9]: 62.13 fL
MONOCYTE [9]: 2.5%
NEUTROPHIL [9]: 13.1%
PLATELET COUNT [9]: 1171.33 x10E3/uL
ALANINE AMINOTRANSFERASE [10]: 37 u/L
ALBUMIN [10]: 3.53 G/DL
ALKALINE PHOSPHATASE [10]: 263.67 u/L
ASPARTATE AMINOTRANSFERASE [10]: 61.67 u/L
BLOOD UREA NITROGEN [10]: 11.67 mg/dL
CHLORIDE [10]: 103.33 MEQ/L
CHOLESTEROL [10]: 122.33 mg/dL
CREATINE PHOSPHOKINASE [10]: 219.67 u/L
CREATININE [10]: 0.4 mg/dL
GLUCOSE [10]: 175.67 mg/dL
PHOSPHORUS [10]: 13.27 mg/dL
POTASSIUM [10]: 7 MEQ/L
SODIUM [10]: 145.33 MEQ/L
TOTAL BILIRUBIN [10]: 0.47 mg/dL
TOTAL PROTEIN [10]: 5.9 G/DL
BASOPHIL [11]: 0.43%
EOSINOPHIL [11]: 0.17%
ERYTHROCYTE COUNT [11]: 6.8 x10E6/uL
HEMATOCRIT [11]: 42.73%
HEMOGLOBIN [11]: 13.33 G/DL
LEUKOCYTE COUNT [11]: 11.39 x10E3/uL
LYMPHOCYTE [11]: 85.5%
MEAN CORPUSCULAR HEMOGLOBIN [11]: 19.63 pg
MEAN CORPUSCULAR HEMOGLOBIN CONCENTRATION [11]: 31.3 G/DL
MEAN CORPUSCULAR VOLUME [11]: 62.77 fL
MONOCYTE [11]: 1.77%
NEUTROPHIL [11]: 11.33%
PLATELET COUNT [11]: 1352 x10E3/uL
ALANINE AMINOTRANSFERASE [12]: 37.67 u/L
ALBUMIN [12]: 3.6 G/DL
ALKALINE PHOSPHATASE [12]: 289 u/L
ASPARTATE AMINOTRANSFERASE [12]: 66.67 u/L
BLOOD UREA NITROGEN [12]: 12.67 mg/dL
CHLORIDE [12]: 102.33 MEQ/L
CHOLESTEROL [12]: 101.33 mg/dL
CREATINE PHOSPHOKINASE [12]: 145 u/L
CREATININE [12]: 0.33 mg/dL
GLUCOSE [12]: 186 mg/dL
PHOSPHORUS [12]: 13.3 mg/dL
POTASSIUM [12]: 6.73 MEQ/L
SODIUM [12]: 147.67 MEQ/L
TOTAL BILIRUBIN [12]: 0.27 mg/dL
TOTAL PROTEIN [12]: 6.1 G/DL
